In patent US7341750B2, “Compound isolated from Ginkgo biloba bark, isolation method thereof and antiplatelet composition containing the same” (Candleflower Co., Ltd., priority 2006, dated 2008):
Where two headings read alike, the source gives them in different places.

Key:
Assay type in all cases: cell-based
[1] = system: collagen-stimulated platelet aggregation; assay: Collagen-stimulated platelet aggregation in concentrated human platelet-rich plasma (aggregometer); details: human concentrated PRP; for IC50: aggregation factor collagen 10 μg/ml, 37° C., read-out: IC50 antiplatelet aggregation activity, Collagen
Protocol: To measure the activity against collagen-stimulated platelet aggregation of the novel compound identified from the Ginkgo biloba bark, concentrated human platelet-rich-plasma (PRP) was first prepared. The PRP used in the present invention was obtained by collecting blood from volunteers in Hallym University Medical Center, centrifuging the blood at 1,000 rpm and room temperature for 10 minutes to collect pure supernatant PRP and centrifuging the supernatant PRP at 3,000 rpm and room temperature for 10 minutes. The obtained PRP was separated into platelet-poor plasma (PPP) and platelets (PLTs). Then, concentrated PRP was prepared in the following manner. That is, platelets (PLTs) were suspended in a suitable amount of the supernatant PPP and measured for absorbance at 660 nm using a UV/visible spectrophotometer. Based on the measured absorbance, the suspension was further diluted with an excess of PPP to prepare concentrated PRP containing 5×10^8 platelets/ml. Herein, an OD value of 1.1 at 660 nm means 1×10^8 PLTs. A washing buffer used in the present invention was a pH 6.5 buffer containing 129 mM NaCl, 10.9 mM sodium citrate dihydrate, 8.9 mM NaHCO3, 1 mg/ml glucose, 10 mM tris-hydroxymethylaminomethane, 2.8 mM KCl, 0.8 mM KH2PO4 and 2 mM EDTA. Also, a suspension buffer used in this test example was a pH 6.9 buffer, which was the same as said washing buffer, except that it contained no EDTA. The platelet aggregation inhibitory effect of the novel compound was examined using the prepared concentrated PRP in the following manner. First, the concentrated PRP was used to make 500 μl of an in vitro reaction system. For use as a control group, the concentrated PRP was stabilized at 37° C. for 3 minutes and treated with collagen (Chrono-LogCo.) as a stimulating agent at a concentration of 10 μg/ml, and the aggregation of platelets in the reaction system was induced for 5 minutes. Meanwhile, the same reaction system as described above was treated with the novel compound, was allowed to react with the novel compound for 3 minutes, was stimulated with collagen for 6 minutes according to the same method as described above so as to induce platelet aggregation, and then was measured for aggregated platelets. The aggregation of platelets was measured with a change in light transmission using an aggregometer (Chrono-Log Co.) at 37° C. The measurement results are shown in Table 1 below and FIGS. 6, 7 and 8. Table 1 summarizes the antiplatelet aggregation activities of aspirin, the novel compound and ginkgolide A and B against platelet aggregation factors, including ADP, collagen and arachidonic acid. […] In the case of the group treated with the novel compound, when arachidonic acid was used as the aggregation factor, the aggregation of platelets occurred only upon stimulation with 1,000 μM (i.e., 1 mM) or higher concentration of arachidonic acid.

[2] = system: ADP-induced platelet aggregation; assay: ADP-stimulated platelet aggregation in concentrated human platelet-rich plasma (aggregometer); details: aggregation factor ADP, human concentrated PRP, —: no effect
Protocol: (§1) To measure the activity against collagen-stimulated platelet aggregation of the novel compound identified from the Ginkgo biloba bark, concentrated human platelet-rich-plasma (PRP) was first prepared. The PRP used in the present invention was obtained by collecting blood from volunteers in Hallym University Medical Center, centrifuging the blood at 1,000 rpm and room temperature for 10 minutes to collect pure supernatant PRP and centrifuging the supernatant PRP at 3,000 rpm and room temperature for 10 minutes. The obtained PRP was separated into platelet-poor plasma (PPP) and platelets (PLTs). Then, concentrated PRP was prepared in the following manner. That is, platelets (PLTs) were suspended in a suitable amount of the supernatant PPP and measured for absorbance at 660 nm using a UV/visible spectrophotometer. Based on the measured absorbance, the suspension was further diluted with an excess of PPP to prepare concentrated PRP containing 5×10^8 platelets/ml. Herein, an OD value of 1.1 at 660 nm means 1×10^8 PLTs. A washing buffer used in the present invention was a pH 6.5 buffer containing 129 mM NaCl, 10.9 mM sodium citrate dihydrate, 8.9 mM NaHCO3, 1 mg/ml glucose, 10 mM tris-hydroxymethylaminomethane, 2.8 mM KCl, 0.8 mM KH2PO4 and 2 mM EDTA. Also, a suspension buffer used in this test example was a pH 6.9 buffer, which was the same as said washing buffer, except that it contained no EDTA. The platelet aggregation inhibitory effect of the novel compound was examined using the prepared concentrated PRP in the following manner. First, the concentrated PRP was used to make 500 μl of an in vitro reaction system. For use as a control group, the concentrated PRP was stabilized at 37° C. for 3 minutes and treated with collagen (Chrono-LogCo.) as a stimulating agent at a concentration of 10 μg/ml, and the aggregation of platelets in the reaction system was induced for 5 minutes. Meanwhile, the same reaction system as described above was treated with the novel compound, was allowed to react with the novel compound for 3 minutes, was stimulated with collagen for 6 minutes according to the same method as described above so as to induce platelet aggregation, and then was measured for aggregated platelets. The aggregation of platelets was measured with a change in light transmission using an aggregometer (Chrono-Log Co.) at 37° C. The measurement results are shown in Table 1 below and FIGS. 6, 7 and 8. Table 1 summarizes the antiplatelet aggregation activities of aspirin, the novel compound and ginkgolide A and B against platelet aggregation factors, including ADP, collagen and arachidonic acid. […]

[3] = system: arachidonic acid-stimulated platelet aggregation; assay: Arachidonic acid-stimulated platelet aggregation in concentrated human platelet-rich plasma (aggregometer); details: for arachidonic acid-stimulated platelet aggregation in treated groups: groups treated with the compound
Protocol: as §1

[4] = arachidonic acid as aggregation factor

Row | Structure (SMILES) | IC50 ([1]; Platelet) | inhibitory activity on collagen-stimulated platelet aggregation (FIGS. 6-8) [1] | IC50 ([2]; Platelet, read-out: IC50 antiplatelet aggregation activity, ADP) | IC50 [1] | IC50 antiplatelet aggregation activity, ADP [2] | arachidonic acid-stimulated platelet aggregation in treated groups [3, 4] | IC50 ([3]; Platelet, aggregation factor arachidonic acid, human concentrated PRP, —: no effect, read-out: IC50 antiplatelet aggregation activity, AA) | concentration of arachidonic acid at which aggregation of platelets occurred in the treated group ([3]; arachidonic acid as aggregation factor, group treated with the compound)
1 | CC(=O)Oc1ccccc1C(=O)O [Aspirin] | 203 µM | inhibited platelet aggregation in a concentration-dependent manner | 316 µM | – | – | – | – | –
2 | C[C@@H]1C(=O)O[C@H]2C[C@@]34[C@H]5C[C@@H](C(C)(C)C)[C@]36[C@@H](OC(=O)[C@@H]6O)O[C@@]4(C(=O)O5)[C@]21O [Gingkolide A] | – | inhibited collagen-stimulated platelet aggregation in a concentration-dependent manner | – | 482 µM | did not show an effect | did not occur | – | –
3 | C[C@@H]1C(=O)O[C@H]2[C@@H](O)[C@@]34[C@H]5C[C@@H](C(C)(C)C)[C@]36[C@@H](OC(=O)[C@@H]6O)O[C@@]4(C(=O)O5)[C@@]12O [Gingkolide B] | – | inhibited collagen-stimulated platelet aggregation in a concentration-dependent manner | – | 480 µM | did not show an effect | did not occur | – | –
4 | COc1cc(-c2oc3cc(OC)c(CCCO)cc3c2C=O)ccc1O [Novel compound, 5-(3-hydroxyprophyl)-6-methoxy-2-(3′-methoxy-4′-hydroxyphenyl)-3-benzo[b]furancarbaldehyde] | 680 µM | inhibited collagen-stimulated platelet aggregation in a concentration-dependent manner | – | – | did not show an effect | – | > 1000 µM | ≥ 1,000 μM
